Measured values as given in US9040259B2, “Production of polyketides and other natural products” (Buck Institute for Research on Aging, priority 2002, dated 2015).
Where two headings read alike, the source gives them in different places.

Experiments:
[1] = test system: HT29 (colon); assay: MTT growth inhibition assay, HT29 (colon) tumour cell line; format: cell-based, human; conditions: for IC50: concentration giving 50% of maximum inhibition, read-out: IC50 (row head: HT29 rIC50)
Experimental: (§1) Growth inhibition of adherent human tumour cell lines of solid malignancies HT29 (colon) and MCF-7 (breast) was tested in vitro using an MTT (3-(4,5-dimethylthiazol-2-yl)-2,5-diphenyltetrazolium bromide) assay using micro-titre plates (Sieuwerts, A. M., et al., 1995). All cell lines were obtained from either the ATCC (American Type Culture Collection) or ECACC (European Collection of Cell Cultures). All cell lines were grown from frozen stocks and passaged at least once prior to use in RPMI 1640. Cells were harvested from sub-confluent cultures using minimal trypsinization. Cells were diluted to the appropriate density for each cell line (dependent on cell doubling time) in RPMI 1640, and seeded in 60 wells of a 96 well plate in a volume of 100 μl per well (i.e. outside wells of the plate were not used). Plates were incubated at 37° C. overnight. Following this incubation, log scale dilutions of reference and test substances were added in 100 μl per well, 6 replicates were used to test all test compounds, reference compounds and medium controls. Plates were incubated for a further 72 h prior to analysis. MTT (5 mg/ml) was added to each well and plates were re-incubated for 3-4 h. Unreacted MTT was removed from the wells and formazan crystals formed from the MTT were dissolved in DMSO and characteristic absorbance read at 570 nm.

[2] = test system: MCF-7 (breast); assay: MTT growth inhibition assay, MCF-7 (breast) tumour cell line; format: cell-based, human; conditions: MCF-7 cell line, 72 h; for IC50: concentration giving 50% of maximum inhibition, read-out: IC50 (row head: MCF-7 rIC50)
Experimental: as §1

[3] = test system: splenic lymphocytes isolated from C57BL/6 mice; assay: Mixed lymphocyte reaction (MLR), [3H] thymidine incorporation; format: cell-based; conditions: IC50 quoted as a ratio of the rapamycin IC50; 72 h, 37° C.
Experimental: Originally developed to assess tissue compatibility prior to allografts, MLR offers an established model for immune reaction in vitro (SOULILLOU, J. P., et al. (1975); T. Meo. “Immunological Methods”, L. Lefkovits and B. Pernis, Eds., Academic Press, N.Y. pp. 227-239 (1979). MLR was performed by mixing splenic lymphocytes isolated from C57BL/6 mice (5×10^5 cells) with inhibited splenic lymphocytes from CBA mice (2.5×10^5 cells). The inhibited CBA lymphocytes induced a proliferative response in C57BU6 lymphocytes and this was determined by [^3H] thymidine incorporation into DNA as a measure of proliferation of splenic lymphocytes isolated from C57BU6 mice. The anti-proliferative effect was assayed for in the presence of log scale dilutions of reference compounds, test compounds and media controls over a 72 h period at 37° C. The concentration of each test compound and reference compound, which inhibited lymphocyte proliferation by 50% (IC50), compared to control proliferation, was calculated for each cell line and quoted as a ratio of the concentration of rapamycin required to inhibit lymphocyte proliferation by 50% (rIC50), see Table XIV.

[4] = test system: Candida albicans DSM 1386; assay: Anti-fungal assay, NCCLS M27-A microtitre broth dilution; format: cell-based; conditions: MIC as a ratio of the rapamycin MIC; 37° C., 24 h
Experimental: (§2) The comparative anti-fungal activities of reference and test compounds were determined against pathogenic fungi Candida albicans DSM 5816, Candida albicans DSM 1386 and Candida glabrata DSM 11226. This was achieved using a microtitre plate adaption of the NCCLS Reference Method for Broth Dilution Antifungal Susceptibility Testing for Yeasts: Approved Standard (M27-A, vol. 17 No. 9. (1997)). Yeast strains were inoculated (10^4 cfu/ml) to RPMI 1640 media containing […] MOPS, pH 7. Growth was determined in the presence of log scale dilutions of reference compounds, test compounds and media controls after incubation with shaking at 37° C., 24 h. Minimum inhibitory concentration (MIC) and minimum fungicidal activity (MFC) were determined for test compounds and expressed as a ratio of the rapamycin minimum inhibitory concentration (rMIC respectively), see Table XV.

[5] = test system: Candida albicans DSM 5816; assay: as above; format: cell-based; conditions: MIC as a ratio of the rapamycin MIC; 37° C., 24 h
Experimental: as §2

[6] = test system: Candida glabrata DSM 11226; assay: as above; format: cell-based; conditions: MIC as a ratio of the rapamycin MIC; 37° C., 24 h
Experimental: as §2

[7] = test system: mixed lymphocyte reaction; conditions: Nishida et al., 1995; cited from earlier work
[8] = compared to rapamycin; Khaw et al., 1998; cited from earlier work
[9] = compared to rapamycin; Wong et al., 1998; cited from earlier work
[10] = compared to rapamycin; Box et al., 1995; cited from earlier work
[11] = molecular target: FKBP12 (Homo sapiens, UniProt P62942); conditions: compared to rapamycin; Box et al., 1995; cited from earlier work
[12] = test system: murine splenic T cells; conditions: compared to rapamycin; Box et al., 1995; cited from earlier work
[13] = test system: murine splenic B cells; conditions: compared to rapamycin; Box et al., 1995; cited from earlier work

Sequence of FKBP12 (P62942 whole entry): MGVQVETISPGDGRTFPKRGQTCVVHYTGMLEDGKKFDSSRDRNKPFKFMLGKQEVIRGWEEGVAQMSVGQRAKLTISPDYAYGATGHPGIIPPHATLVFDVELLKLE

In the case of `CO[C@H]1C[C@@H]2CC[C@@H](C)[C@@](O)(O2)C(=O)C(=O)N2CCCC[C@H]2C(=O)O[C@H]([C@H](C)C[C@@H]2CC[C@@H](O)[C@H](OC)C2)CC(=O)[C@H](C)/C=C(\C)[C@@H](O)[C@@H](OC)C(=O)[C@H](C)C[C@H](C)/C=C/C=C/C=C/1C` [rapamycin, reference compound], the “Im (maximum percentage of inhibition observed)” value ([1]; 72 h) is reported as 40%, the IC50 ([1]; Homo sapiens, HT-29, 72 h) is reported as 200 nM and the IC50 ([2]; Homo sapiens, MCF7) is reported as 0.03 nM. For the same compound, the “Im (maximum percentage of inhibition observed)” value [2] was 56%.

In the case of `CO[C@@H]1C[C@H](C[C@@H](C)[C@@H]2CC(=O)[C@H](C)/C=C(\C)[C@@H](O)[C@@H](O)C(=O)[C@H](C)C[C@H](C)/C=C/C=C/C=C(\C)[C@@H](O)C[C@@H]3CC[C@@H](C)[C@](O)(CC(=O)N4CCCC[C@H]4C(=O)O2)O3)CC[C@H]1O` [Compound 9, 9-deoxo-16-O-desmethyl-27-O-desmethyl-rapamycin], the “Im (maximum percentage of inhibition observed)” value ([1]; 72 h) is reported as 35%, the IC50 ([1]; 72 h) is reported as 12.6 nM and the “Im (maximum percentage of inhibition observed)” value [2] is reported as 40%. The IC50 [2] was 17.8 nM, the “MLR rIC50” value [3] was 6.5 and the “C. albicans DSM 1386 rMIC” value [4] was 1. The “C. albicans DSM 5816 rMIC” value [5] was 1 and the “C. glabrata DSM 11226 rMIC” value [6] was 1.

For `CO[C@H]1C[C@@H]2CC[C@@H](C)[C@](O)(CC(=O)N3CCCC[C@H]3C(=O)O[C@H]([C@H](C)C[C@@H]3CC[C@@H](O)[C@H](OC)C3)CC(=O)[C@H](C)/C=C(\C)[C@@H](O)[C@@H](OC)C(=O)[C@H](C)C[C@H](C)/C=C/C=C/C=C/1C)O2` [Compound 19, 9-deoxo-rapamycin], the “mixed lymphocyte reaction (MLR) inhibitory activity” value [7] is listed as “more significant decrease in activity”.

In the case of `COC1CC2CCC(C)C(O)(CC(=O)N3CCCCC3C(=O)OC(C(C)CC3CCC(O)C(OC)C3)CC(=O)C(C)C=C(C)C(O)CC(=O)C(C)CC(C)C=CC=CC=C1C)O2` (stereo not shown) [Compound 16, 9-deoxo-27-desmethoxy-rapamycin], the “Im (maximum percentage of inhibition observed)” value ([1]; 72 h) is reported as 25%, the IC50 ([1]; 72 h) is reported as 15.8 nM and the “Im (maximum percentage of inhibition observed)” value [2] is reported as 32%. For the same compound, the IC50 [2] was 2 nM, the “MLR rIC50” value [3] was greater than 14.7 and the “C. albicans DSM 1386 rMIC” value [4] was 5. The “C. albicans DSM 5816 rMIC” value [5] was 1 and the “C. glabrata DSM 11226 rMIC” value [6] was 5.

In the case of 4-hydroxyprolyl-26-desmethoxy-rapamycin, the “inhibitory activity in proliferation assays” value [8] is listed as “significantly less than that of rapamycin”.

With `CC1=CC(C)C(=O)CC(C(C)CC2CCC(O)C(O)C2)OC(=O)C2CCCCN2C(=O)C(=O)C2(O)OC(CCC2C)CC(O)C(C)=CC=CC=CC(C)CC(C)C(=O)CC1O` (stereo not shown) [Compound 3, 16-O-desmethyl-27-desmethoxy-39-O-desmethyl-rapamycin] the “Im (maximum percentage of inhibition observed)” value ([1]; 72 h) was 37%, the IC50 ([1]; 72 h) was 63.1 nM and the “Im (maximum percentage of inhibition observed)” value [2] was 38%. For the same compound, the IC50 [2] was 20 nM, the “MLR rIC50” value [3] was 7.9 and the “C. albicans DSM 1386 rMIC” value [4] was 1. The “C. albicans DSM 5816 rMIC” value [5] was 1 and the “C. glabrata DSM 11226 rMIC” value [6] was 1.

With `CC1=CC(C)C(=O)CC(C(C)CC2CCC(O)C(O)C2)OC(=O)C2CCCCN2C(=O)CC2(O)OC(CCC2C)CC(O)C(C)=CC=CC=CC(C)CC(C)C(=O)CC1O` (stereo not shown) [Compound 1, 9-deoxo-16-O-desmethyl-27-desmethoxy-39-O-desmethyl-rapamycin] the “Im (maximum percentage of inhibition observed)” value ([1]; 72 h) was 38%, the IC50 ([1]; 72 h) was 50.1 nM and the “Im (maximum percentage of inhibition observed)” value [2] was 38%. For the same compound, the IC50 [2] was 3.2 nM, the “MLR rIC50” value [3] was 9.4 and the “C. albicans DSM 1386 rMIC” value [4] was 5. For the same compound, the “C. albicans DSM 5816 rMIC” value [5] was 1 and the “C. glabrata DSM 11226 rMIC” value [6] was 5.

For 27-desmethoxy-rapamycin [Compound 22], the antifungal activities [9] is listed as “lower than that of rapamycin”.

For `COC1CC2CCC(C)C(O)(O2)C(=O)C(=O)N2CCCC2C(=O)OC(C(C)CC2CCC(O)C(OC)C2)CC(=O)C(C)/C=C(\C)C(O)C(OC)C(=O)C(C)CC(C)/C=C/C=C/C=C/1C` (stereo not shown) [prolylrapamycin, reference compound], the antifungal activities [9] is given as “lower than that of rapamycin”.

In the case of `CO[C@@H]1C[C@H](C[C@@H](C)[C@@H]2CC(=O)[C@H](C)/C=C(\C)[C@@H](O)CC(=O)[C@H](C)C[C@H](C)/C=C/C=C/C=C(\C)[C@@H](O)C[C@@H]3CC[C@@H](C)[C@](O)(CC(=O)N4CCCC[C@H]4C(=O)O2)O3)CC[C@H]1O` [Compound 6, 9-deoxo-16-O-desmethyl-27-desmethoxy-rapamycin], the “Im (maximum percentage of inhibition observed)” value ([1]; 72 h) is reported as 38%, the IC50 ([1]; 72 h) is reported as 25 nM and the “Im (maximum percentage of inhibition observed)” value [2] is reported as 48%. For the same compound, the IC50 [2] was 126 nM, the “MLR rIC50” value [3] was 8.8 and the “C. albicans DSM 1386 rMIC” value [4] was 5. For the same compound, the “C. albicans DSM 5816 rMIC” value [5] was 1 and the “C. glabrata DSM 11226 rMIC” value [6] was 5.

For `CO[C@H]1C[C@@H]2CC[C@@H](C)[C@@](O)(O2)C(=O)C(=O)N2CCCC[C@H]2C(=O)O[C@H]([C@H](C)C[C@@H]2CC[C@@H](O)[C@H](OC)C2)CC(=O)[C@H](C)/C=C(\C)[C@@H](O)[C@@H](O)C(=O)[C@H](C)C[C@H](C)/C=C/C=C/C=C/1C` [Compound 21, 27-O-desmethyl-rapamycin], the antifungal activity [10] is given as “lower than that of rapamycin”, the “inhibition of FKBP12 PPlase activity” value [11] is given as “seemed to be increased” and the “inhibition of ConA-stimulated proliferation of murine splenic T cells” value [12] is given as “decreased when compared to rapamycin”. For the same compound, the “inhibition of LPS-stimulated proliferation of murine splenic B cells” value [13] was “decreased when compared to rapamycin” and the antifungal activities [9] was “lower than that of rapamycin”.

For `CO[C@H]1C[C@@H]2CC[C@@H](C)[C@](O)(CC(=O)N3CCCC[C@H]3C(=O)O[C@H]([C@H](C)C[C@@H]3CC[C@@H](O)[C@H](O)C3)CC(=O)[C@H](C)/C=C(\C)[C@@H](O)[C@@H](O)C(=O)[C@H](C)C[C@H](C)/C=C/C=C/C=C/1C)O2` [Compound 8, 9-deoxo-27-O-desmethyl-39-O-desmethyl-rapamycin], the “Im (maximum percentage of inhibition observed)” value ([1]; 72 h) was 30%, the IC50 ([1]; 72 h) was 63 nM and the “Im (maximum percentage of inhibition observed)” value [2] was 38%. For the same compound, the IC50 [2] was 20 nM, the “MLR rIC50” value [3] was 4.1 and the “C. albicans DSM 1386 rMIC” value [4] was 1. For the same compound, the “C. albicans DSM 5816 rMIC” value [5] was 1 and the “C. glabrata DSM 11226 rMIC” value [6] was 1.
